A value given as a limit tells only on which side of the number the result lay.

The source of these data is ChEMBL document CHEMBL5230155, “Recent contributions of quinolines to antimalarial and anticancer drug discovery research” (Eur J Med Chem, 2021).

Data set [1] has as its system PC-3. The data set can be described thus: Antiproliferative activity against human PC-3 cells. It is filed as functional, cell-based.
Data set [2] has as its target Alkaline phosphatase, germ cell type (Homo sapiens, UniProt P10696). Description: Inhibition of human germ cell alkaline phosphatase.
For data set [3], the target named is Hepatocyte growth factor receptor (Homo sapiens, UniProt P08581). The data set can be described thus: Inhibition of c-Met (unknown origin).
The subject of data set [4] is Leukemia cell. Description: Antiproliferative activity against human Leukemia cells. It is filed as functional.
Data set [5] in a line: Antiproliferative activity against human CNS cells. The data set is classed as functional. The note with it: CNS cell.
In data set [6] the test system is Breast carcinoma cell. Description: Antiproliferative activity against human breast cancer cells. It is filed as functional.
The subject of data set [7] is Plasmodium falciparum. Description: Antimalarial activity against CQ-sensitive Plasmodium falciparum 3D7. The data set is classed as functional, organism-based.
Data set [8] can be described thus: Cytotoxicity against african green monkey Vero cells. The data set is classed as toxicity, cell-based. The note with it: African green monkey (Chlorocebus sabaeus).
Data set [9] is described as follows: Selectivity index, ratio of IC50 for African green monkey Vero cells to IC50 for CQ sensitive Plasmodium falciparum 3D7. It is filed as toxicity. The note with it: read-out: Ratio IC50.
The test system of data set [10] is Plasmodium falciparum. The data set can be described thus: Antimalarial activity against CQ-resistant Plasmodium falciparum RKL-9. It is filed as functional, organism-based.
Data set [11] relates to NCI-H460. Description: Antiproliferative activity against human NCI-H460 cells. The data set is classed as functional, cell-based.
Data set [12] has as its system PANC-1. Description: Antiproliferative activity against human PANC-1 cells. It is filed as functional, cell-based.
Data set [13] relates to MIA PaCa-2. The data set can be described thus: Antiproliferative activity against human MIA PaCa-2 cells. The data set is classed as functional, cell-based.
Data set [14] concerns HT-29. The data set can be described thus: Antiproliferative activity against human HT-29 cells. It is filed as functional, cell-based.
Data set [15] concerns A-375. The data set can be described thus: Antiproliferative activity against human A-375 cells. The data set is classed as functional, cell-based.
Data set [16] deals with Epidermal growth factor receptor (Homo sapiens, UniProt P00533).
For data set [17], the system named is Hep 3B2. The data set can be described thus: Cytotoxicity against human Hep3B cells assessed as relative value at 15 uM after 48 hrs by MTS method. It is filed as functional. On the technique in general: Tetrazolium assays rely on reduction of a dye to a coloured formazan, in cell work by metabolically active cells.
Data set [18] deals with Plasmodium falciparum. The data set can be described thus: Antimalarial activity against CQ-resistant Plasmodium falciparum Dd2. The data set is classed as functional, organism-based.
Data set [19] deals with Hemozoin. The data set can be described thus: Inhibition of beta-hematin formation. The note with it: concentration not given here.
Data set [20] has as its system Plasmodium berghei. Description: Antimalarial activity against Plasmodium berghei ANKA infected in mouse assessed increase in survival time (reference value: 6.8 day). It is filed as functional.
In data set [21] the test system is Plasmodium berghei. Description: Antimalarial activity against liver stage Plasmodium berghei. It is filed as functional, organism-based.
Data set [22] relates to MV4-11. The data set can be described thus: Antiproliferative activity against human MV4-11 cells. It is filed as functional, cell-based.
For data set [23], the target named is Histone-lysine N-methyltransferase, H3 lysine-79 specific (Homo sapiens, UniProt Q8TEK3). The data set can be described thus: Inhibition of DOT1L (unknown origin).
Data set [24] has as its system Plasmodium berghei. The data set can be described thus: Antimalarial activity against Plasmodium berghei ANKA infected in mouse assessed increase in survival time at 20 mg/kg/day, ip for 4 days. The data set is classed as functional. The note with it: time 4 day.
In data set [25] the test system is Plasmodium berghei. The data set can be described thus: Antiplasmodial activity against Plasmodium berghei ANKA infected in mouse assessed as reduction in parasitaemia at 20 mg/kg/day, ip administered for 4 days. The data set is classed as functional. More on the design: scale not given: the % may be the effect or the level left. The note with it: time 4 day.

The test system of data set [26] is MCF7. Description: Antiproliferative activity against human MCF7 cells. The note with it: Homo sapiens, MCF7. The data set is classed as functional, cell-based.
In data set [27] the test system is G-361. Description: Antiproliferative activity against human G-361 cells. It is filed as functional, cell-based. The note with it: read-out: IC50.
Data set [28] relates to A549. The data set can be described thus: Cytotoxicity against human A549 cells. It is filed as functional, cell-based.
In data set [29] the test system is K562. The data set can be described thus: Cytotoxicity against human K562 cells. It is filed as functional, cell-based.
The target of data set [30] is Phosphatidylinositol 4,5-bisphosphate 3-kinase catalytic subunit gamma isoform (Homo sapiens, UniProt P48736). The data set can be described thus: Inhibition of PI3K gamma (unknown origin).

Alkaline phosphatase, germ cell type, sequence (P10696 whole entry): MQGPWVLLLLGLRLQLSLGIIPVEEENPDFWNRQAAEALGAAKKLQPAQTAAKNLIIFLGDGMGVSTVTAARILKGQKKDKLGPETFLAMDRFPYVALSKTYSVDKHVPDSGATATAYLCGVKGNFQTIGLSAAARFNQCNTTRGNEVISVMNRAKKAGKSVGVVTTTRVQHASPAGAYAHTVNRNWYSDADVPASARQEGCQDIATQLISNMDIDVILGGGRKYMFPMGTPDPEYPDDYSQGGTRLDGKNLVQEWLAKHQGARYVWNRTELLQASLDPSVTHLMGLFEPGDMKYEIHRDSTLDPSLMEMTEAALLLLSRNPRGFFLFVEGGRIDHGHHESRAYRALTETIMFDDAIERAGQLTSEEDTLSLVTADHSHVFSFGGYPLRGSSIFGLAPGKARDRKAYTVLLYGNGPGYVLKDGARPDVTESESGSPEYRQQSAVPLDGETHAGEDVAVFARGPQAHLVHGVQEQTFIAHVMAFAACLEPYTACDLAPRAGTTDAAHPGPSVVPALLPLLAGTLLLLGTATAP
Epidermal growth factor receptor, sequence (P00533 whole entry): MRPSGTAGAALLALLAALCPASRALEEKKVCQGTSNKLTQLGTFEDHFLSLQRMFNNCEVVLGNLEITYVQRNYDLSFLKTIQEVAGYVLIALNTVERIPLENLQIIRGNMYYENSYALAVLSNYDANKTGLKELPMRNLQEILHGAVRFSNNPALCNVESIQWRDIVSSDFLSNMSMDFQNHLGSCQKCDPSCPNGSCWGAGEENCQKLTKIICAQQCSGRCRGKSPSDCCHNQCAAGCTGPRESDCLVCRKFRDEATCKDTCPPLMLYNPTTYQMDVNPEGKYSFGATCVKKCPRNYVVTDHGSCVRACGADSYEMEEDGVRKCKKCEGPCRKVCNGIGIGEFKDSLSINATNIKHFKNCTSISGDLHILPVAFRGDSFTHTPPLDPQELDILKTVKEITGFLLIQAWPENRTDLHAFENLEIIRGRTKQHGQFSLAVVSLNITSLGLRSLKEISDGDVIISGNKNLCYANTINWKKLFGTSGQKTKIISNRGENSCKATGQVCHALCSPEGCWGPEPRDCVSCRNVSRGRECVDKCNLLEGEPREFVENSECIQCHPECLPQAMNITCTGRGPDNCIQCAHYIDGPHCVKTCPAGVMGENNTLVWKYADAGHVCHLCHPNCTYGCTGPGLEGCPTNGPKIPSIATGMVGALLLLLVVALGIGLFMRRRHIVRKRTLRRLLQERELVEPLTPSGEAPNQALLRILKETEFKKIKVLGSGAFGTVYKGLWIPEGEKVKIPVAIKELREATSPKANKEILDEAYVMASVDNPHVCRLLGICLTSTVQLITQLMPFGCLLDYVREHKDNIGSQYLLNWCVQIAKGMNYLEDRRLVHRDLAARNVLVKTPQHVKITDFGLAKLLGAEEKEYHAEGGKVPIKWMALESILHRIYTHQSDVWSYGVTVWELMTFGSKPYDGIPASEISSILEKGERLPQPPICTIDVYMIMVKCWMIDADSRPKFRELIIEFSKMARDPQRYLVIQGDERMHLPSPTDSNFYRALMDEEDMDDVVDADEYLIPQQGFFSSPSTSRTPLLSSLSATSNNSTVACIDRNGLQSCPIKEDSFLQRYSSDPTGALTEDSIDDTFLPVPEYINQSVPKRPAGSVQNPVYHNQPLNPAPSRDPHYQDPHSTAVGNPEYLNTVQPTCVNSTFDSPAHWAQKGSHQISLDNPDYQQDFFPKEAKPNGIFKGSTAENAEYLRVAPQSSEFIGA
Hepatocyte growth factor receptor, sequence (P08581 whole entry): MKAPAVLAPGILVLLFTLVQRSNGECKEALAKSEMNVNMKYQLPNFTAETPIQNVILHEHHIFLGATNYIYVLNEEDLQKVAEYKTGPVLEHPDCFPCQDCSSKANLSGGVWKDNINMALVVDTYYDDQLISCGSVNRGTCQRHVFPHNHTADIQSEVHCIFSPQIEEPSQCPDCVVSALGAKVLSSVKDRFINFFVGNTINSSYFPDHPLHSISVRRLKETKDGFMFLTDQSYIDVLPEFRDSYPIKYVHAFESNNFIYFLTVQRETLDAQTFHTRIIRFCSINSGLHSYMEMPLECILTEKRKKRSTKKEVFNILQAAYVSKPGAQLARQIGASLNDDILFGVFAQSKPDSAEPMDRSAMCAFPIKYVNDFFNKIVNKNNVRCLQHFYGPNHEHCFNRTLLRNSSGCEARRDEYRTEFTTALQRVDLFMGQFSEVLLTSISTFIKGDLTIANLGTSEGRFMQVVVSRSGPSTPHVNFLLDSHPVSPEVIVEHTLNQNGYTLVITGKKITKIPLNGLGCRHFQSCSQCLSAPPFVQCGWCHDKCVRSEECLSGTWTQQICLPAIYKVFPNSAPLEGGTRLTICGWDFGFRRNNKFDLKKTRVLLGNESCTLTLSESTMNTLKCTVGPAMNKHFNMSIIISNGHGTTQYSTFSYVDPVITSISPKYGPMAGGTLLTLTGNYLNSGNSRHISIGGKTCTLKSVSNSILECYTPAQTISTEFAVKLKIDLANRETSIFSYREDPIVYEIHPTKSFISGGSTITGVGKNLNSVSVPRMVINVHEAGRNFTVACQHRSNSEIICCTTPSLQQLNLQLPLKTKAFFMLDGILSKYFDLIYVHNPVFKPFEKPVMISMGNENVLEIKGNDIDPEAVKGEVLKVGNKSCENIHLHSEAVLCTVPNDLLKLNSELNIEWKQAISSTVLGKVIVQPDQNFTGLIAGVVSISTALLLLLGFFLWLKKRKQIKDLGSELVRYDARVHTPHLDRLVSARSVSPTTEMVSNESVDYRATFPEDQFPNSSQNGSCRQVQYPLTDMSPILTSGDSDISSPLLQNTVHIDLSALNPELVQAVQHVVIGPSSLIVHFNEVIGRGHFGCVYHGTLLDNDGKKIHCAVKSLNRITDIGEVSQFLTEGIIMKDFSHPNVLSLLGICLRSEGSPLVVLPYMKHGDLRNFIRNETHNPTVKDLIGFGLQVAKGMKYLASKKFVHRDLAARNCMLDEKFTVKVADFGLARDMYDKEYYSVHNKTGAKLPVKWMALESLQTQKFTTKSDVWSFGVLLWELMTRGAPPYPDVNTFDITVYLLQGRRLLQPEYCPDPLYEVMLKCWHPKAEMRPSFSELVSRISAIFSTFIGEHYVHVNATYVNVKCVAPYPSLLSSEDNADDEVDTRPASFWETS
Histone-lysine N-methyltransferase, H3 lysine-79 specific, sequence (Q8TEK3 whole entry): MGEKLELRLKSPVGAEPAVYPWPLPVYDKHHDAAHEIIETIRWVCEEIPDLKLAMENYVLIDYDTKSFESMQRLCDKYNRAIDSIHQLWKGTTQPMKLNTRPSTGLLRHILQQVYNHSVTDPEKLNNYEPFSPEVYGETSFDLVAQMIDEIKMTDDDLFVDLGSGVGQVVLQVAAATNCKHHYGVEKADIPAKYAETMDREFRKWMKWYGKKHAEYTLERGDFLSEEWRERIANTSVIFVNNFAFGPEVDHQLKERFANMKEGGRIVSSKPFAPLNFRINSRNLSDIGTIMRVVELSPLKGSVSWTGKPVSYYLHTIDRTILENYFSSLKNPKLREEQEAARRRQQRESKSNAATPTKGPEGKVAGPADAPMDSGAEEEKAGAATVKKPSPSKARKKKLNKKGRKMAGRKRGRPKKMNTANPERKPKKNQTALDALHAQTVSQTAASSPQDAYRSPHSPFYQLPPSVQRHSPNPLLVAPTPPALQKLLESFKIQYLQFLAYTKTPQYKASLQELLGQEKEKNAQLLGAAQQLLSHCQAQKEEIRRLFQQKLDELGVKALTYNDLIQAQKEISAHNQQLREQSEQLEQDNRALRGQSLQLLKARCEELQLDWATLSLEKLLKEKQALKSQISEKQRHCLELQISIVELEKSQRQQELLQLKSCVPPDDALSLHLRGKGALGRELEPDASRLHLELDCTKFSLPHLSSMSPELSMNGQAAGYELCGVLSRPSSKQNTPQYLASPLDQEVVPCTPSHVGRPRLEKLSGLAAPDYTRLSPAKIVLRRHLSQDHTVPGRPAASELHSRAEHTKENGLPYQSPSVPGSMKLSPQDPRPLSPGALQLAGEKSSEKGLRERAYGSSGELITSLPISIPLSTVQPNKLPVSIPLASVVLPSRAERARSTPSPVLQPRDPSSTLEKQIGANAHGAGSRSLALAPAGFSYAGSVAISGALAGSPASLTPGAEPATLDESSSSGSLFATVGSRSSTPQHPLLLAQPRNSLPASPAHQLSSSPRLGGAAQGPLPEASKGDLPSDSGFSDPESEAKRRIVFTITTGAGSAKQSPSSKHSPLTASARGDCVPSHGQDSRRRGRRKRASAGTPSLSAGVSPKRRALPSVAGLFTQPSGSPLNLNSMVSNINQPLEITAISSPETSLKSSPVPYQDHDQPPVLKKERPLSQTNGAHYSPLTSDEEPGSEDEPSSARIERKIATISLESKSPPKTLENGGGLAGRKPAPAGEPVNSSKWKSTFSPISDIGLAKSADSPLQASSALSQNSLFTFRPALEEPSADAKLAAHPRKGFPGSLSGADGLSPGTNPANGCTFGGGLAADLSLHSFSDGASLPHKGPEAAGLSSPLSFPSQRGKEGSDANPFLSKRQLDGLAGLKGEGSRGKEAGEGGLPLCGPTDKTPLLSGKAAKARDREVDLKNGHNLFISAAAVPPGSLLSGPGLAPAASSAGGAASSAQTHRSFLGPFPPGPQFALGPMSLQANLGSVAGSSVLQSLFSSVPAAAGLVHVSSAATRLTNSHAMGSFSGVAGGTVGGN

As usually defined, the IC50 is the concentration that gives 50% inhibition. In the case of `Cc1cc2nc(O)cc(C(=O)Nc3nc4ccccc4s3)c2cc1C`, the IC50 was 48 nM in data set [1] and < 75 nM in [2].

In general, GI50 refers to the concentration that inhibits growth by half. Molecule `COc1cc2nccc(Oc3ccc(NC(=O)C4(C(=O)Nc5ccc(F)cc5)CC4)cc3)c2cc1OC(=O)c1ccc(N)cc1` displayed an IC50 in data set [3] of 19 nM. For the same molecule, the GI50 in data set [4], in data set [5] and in data set [6] was 290 nM in each case.

Consider `O=C(Cn1cc(COc2ccc(Br)cc2)nn1)NCCNc1ccnc2cc(Cl)ccc12`, for which the IC50 in data set [7] was 38.8 nM; in [8], > 5000 nM; in [10], 2.94 nM. The selectivity ratio in [9] came to 714.

`CSc1nc2ccccc2cc1/C=C1/C=C(c2ccccc2)NC1=O`: the IC50 in [11], in data set [12], in [13], in data set [14] and in data set [15] was 1900 nM in each case.

Consider `COc1ccc2nc(Cl)c(C3CC(c4ccc(C)cc4)=NN3c3nc(C)c(C(=O)Nc4ccccc4)s3)cc2c1` (stereo unspecified), for which, in [16], the midpoint of inhibition, the IC50, lay at 42.5 nM.

As to `O=S(=O)(Oc1cccc2cccnc12)c1ccc(CBr)cc1`, the “fold change (FC)” value in data set [17] worked out at 0.25.

For the molecule `O=C(Nc1nc2ccccc2s1)c1cc(O)nc2ccc(O)cc12`, the IC50 in data set [2] is < 75 nM.

As for `CN(C)CCNc1cc(/C=C/c2cccs2)nc2ccccc12`, half-maximal inhibition in [18] (IC50) required 33 nM.

As a reminder, the inhibition is the percentage by which the read-out fell short of the control. With `COC(=O)[C@H](Cc1c[nH]c2ccccc12)NC(=O)CSc1ccnc2cc(Cl)ccc12`, in data set [19], the inhibition was found to be 61.1%. The same molecule displayed a Time in data set [20] of 24.6 days.

In data set [18], `CN(C)CCNc1cc(/C=C/c2ccc(Br)cc2)nc2ccccc12` displayed an IC50 of 33 nM.

For `COC(=O)[C@@H](NC(=O)CSc1ccnc2cc(Cl)ccc12)C(C)C`, the inhibition in data set [19] stood at 61.1%. Further, the Time in data set [20] was 24.6 days.

Take `COc1cc(C)c2c(Oc3ccc(F)c(F)c3)c(OC)cc(NC(C)CCON=C(C)C)c2n1` (stereo unspecified): the values for the IC50 in data set [7] and in data set [21] were 380 nM and 5400 nM, respectively.

Take `CCN(CCNC(=O)Nc1ccc(C(C)(C)C)cc1)c1nc(C)cc(Nc2ccc3nc(C)cc(N)c3c2)n1`: the IC50 in data set [22] amounted to 1620 nM; in [23], 5720 nM.

In the case of `O=C(Cn1cc(COc2ccc(Br)cc2)nn1)NCCCNc1ccnc2cc(Cl)ccc12`, the IC50 in [7] is 38.8 nM; in data set [8] it was > 5000 nM; in [10] it was 16 nM. For the same molecule, the selectivity ratio in [9] turned out to be 714.

As for `COc1cc2c(C(=O)Nc3nc4ccccc4s3)cc(O)nc2cc1Cl`, the IC50 in [2] was < 75 nM.

As to `COc1cc(/C=C/C(=O)c2cccc(Nc3ccnc4cc(Cl)ccc34)c2)cc(OC)c1OC`, the Time in data set [24] amounted to 24.6 days. The Activity in data set [25] was 1.4%.

In the case of `O=C(Cn1cc(COc2ccc(Cl)cc2)nn1)NCCNc1ccnc2cc(Cl)ccc12`, the IC50 in data set [7] was 38.8 nM; in data set [8], > 5000 nM; in data set [10] it was 75 nM. In data set [9], the selectivity ratio was 714.

Turning to `COc1ccc2ccc(F)c(CC(=O)N/N=C/c3cc(OC)c(OC)c(OC)c3)c2n1`, the IC50 in [26] and in data set [27] was 2070 nM each time.

As to `COc1ccc(-c2cc(C(=O)N/N=C(\C=C\c3ccc(Cl)cc3)c3ccc(N)cc3)c3ccccc3n2)cc1`, the IC50 was 1910 nM in [28], 1910 nM in data set [29] and 52 nM in [30].

As for `O=S(=O)(Oc1c(Br)cc(Br)c2cccnc12)c1cccc2cccnc12`, in data set [17], the “fold change (FC)” value was determined as 0.38.

For the molecule `COc1ccc2ccc(F)c(CC(=O)N/N=C/c3ccc(C(F)(F)F)cc3)c2n1`, the concentration for half-maximal inhibition (IC50) in data set [26] and in data set [27] was 2070 nM each time.

As to `COc1nc2ccc(C)cc2cc1Cc1cc(-c2ccccc2)n[nH]c1=O`, the IC50 in data set [11], in [12], in data set [14] and in data set [15] was 2200 nM throughout.
